In patent US20120100073A1, “PET RADIOTRACERS FOR IMAGING FATTY ACID METABOLISM AND STORAGE” (WASHINGTON UNIVERSITY, priority 2009, published 2012):

Assays:
β-oxidation = details: literature ref. 17, cited from earlier work
[1] = previous studies; rapid phase = oxidation, slow phase = storage; cited from earlier work
[2] = microPET imaging and myocardial time-activity curves (tracer kinetics) in a fed rat; type: in vivo
Protocol: Animal Preparation. All animal procedures are conducted in compliance with the guidelines for the care and use of research animals established by the Animal Studies Committee of Washington University. Animal preparation is performed as described previously.^24-26 Rats are housed in metabolism cages and anesthetized by inhalation of […] isoflurane administered via an induction chamber. Anesthesia can be maintained throughout the imaging session by delivering 1%-1.5% isoflurane via a custom-designed nose cone. Venous access is via the right jugular vein. Body temperature can be maintained using a circulating water blanket and a heat lamp. Heart and respiration rates can be monitored throughout the process.
PET Acquisition. The animals can be secured in a custom-designed acrylic restraining device and placed inside the field of view of the small-animal imaging PET scanner. Imaging acquisition starts Ss after a bolus injection of tracer via the right jugular catheter. The imaging protocol consists of dynamic acquisition of microPET images of ^11C-palmitate (5-7mCI) followed by ^18F-FAA or by ^18F-VLDL (5-7mCi) alone. Dynamic mage acquisition during ^11C-palmitate and either ^18F-FAA or ^18F-FAA-VLDL can be 30 and 60 min, respectively. The total time of the imaging session can be ˜3 hrs. Three whole-blood arterial samples are collected throughout the study to measure whole blood glucose (5 μL), free fatty acid (20 μL), and insulin (5 μL) levels to confirm the metabolic state of the animals,
Image Processing/Analysis. Dynamic images can be reconstructed using filtered backprojection with a 2.5 zoom on the heart and 40 frames per imaging session. The input function is reconstructed by applying the hybrid image-blood-sampling algorithm as described previously.^25 A myocardial region of interest is placed to generate a myocardial time-activity curve (TAC). The ^18F-FAA and ^18F-FAA-VLDL blood and myocardial TACs can be compared with the ^11C-palmitate TACs for both defiing characteristics (e.g., height and shape) as well as similar kinetics based exponential curve-fitting algorithms. […]

For `CCCC([18F])CCCCCCCSCCCCC(=O)O` (racemic) [FTHA, 14-(R,S)-^18F-fluoro-6-thiaheptadecanoic acid], the “uptake and retention versus inhibition of β-oxidation by hypoxia” value (β-oxidation) is given as “insensitive to the inhibition of β-oxidation by hypoxia”.
In the case of `O=C(O)CCSCCCCCCCCCCCC[18F]` [FTP, ^18F-fluoro-thia-palmitate], the “deposition versus β-oxidation” value (β-oxidation; normal oxygenation and hypoxic conditions) is listed as “proportional to β-oxidation under normal oxygenation and hypoxic conditions”.
For `CCCCCCCCCCCCCCC[11C](=O)O` [^11C-palmitate], the “washout kinetics from heart” value [1] is listed as “biphasic washout kinetics from heart”, the “myocardial tracer uptake and washout pattern” value ([2]; blood and myocardial TACs, fed rat) is listed as “significant tracer uptake with rapid bi-phasic washout” and the “tracer clearance late after injection” value ([2]; blood and myocardium, up to 60 mins post-tracer injection) is listed as “tracer increased in both, blood and myocardium, 25 mins post tracer injection”.
In the case of `O=C(O)CCCCCCCCCCCCCCc1ccc(OCC[18F])cc1` [^18F-FAA], the “tracer clearance late after injection” value ([2]; rat, in vivo) is reported as “still prevalent at 60 mins post-tracer injection”.
In the case of `O=C(O)CCCCCCCCCCCCCCc1ccc(I)cc1` [^123I-lPPA, 15-(p-iodophenyl)-pentadecanoic acid], the “washout kinetics from heart” value [1] is listed as “biphasic washout kinetics from heart”.
